# Measured values as given in US20230322761A1, “DEGRADATION OF BRUTON'S TYROSINE KINASE (BTK) BY CONJUGATION OF BTK INHIBITORS WITH E3 LIGASE LIGAND AND METHODS OF USE” (BEIGENE, LTD., priority 2020, published 2023).
# Structures can show the parent of a compound that is named as a salt.
# Biological target: T1, BTK (Homo sapiens, UniProt Q06187)
# T1 construct: endogenous in cells; host or cells: TMD-8 cells
# Assay: BTK degradation in TMD-8 cells, HTRF assay after 6 h treatment
# Type: cell-based
# Conditions: IC50 (DC50) of BTK degradation
# Summary of the method: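 TMD-8 cells treated for 6 h with 8 compound doses in 6-fold dilution steps from a 1 mM 500× DMSO stock (0.2% DMSO), then lysed 30 min at room temperature. BTK in lysate detected by HTRF (665/620 nm) after overnight antibody incubation; DC50 from four-parameter curve fit.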
# T1 sequence (Q06187 whole entry): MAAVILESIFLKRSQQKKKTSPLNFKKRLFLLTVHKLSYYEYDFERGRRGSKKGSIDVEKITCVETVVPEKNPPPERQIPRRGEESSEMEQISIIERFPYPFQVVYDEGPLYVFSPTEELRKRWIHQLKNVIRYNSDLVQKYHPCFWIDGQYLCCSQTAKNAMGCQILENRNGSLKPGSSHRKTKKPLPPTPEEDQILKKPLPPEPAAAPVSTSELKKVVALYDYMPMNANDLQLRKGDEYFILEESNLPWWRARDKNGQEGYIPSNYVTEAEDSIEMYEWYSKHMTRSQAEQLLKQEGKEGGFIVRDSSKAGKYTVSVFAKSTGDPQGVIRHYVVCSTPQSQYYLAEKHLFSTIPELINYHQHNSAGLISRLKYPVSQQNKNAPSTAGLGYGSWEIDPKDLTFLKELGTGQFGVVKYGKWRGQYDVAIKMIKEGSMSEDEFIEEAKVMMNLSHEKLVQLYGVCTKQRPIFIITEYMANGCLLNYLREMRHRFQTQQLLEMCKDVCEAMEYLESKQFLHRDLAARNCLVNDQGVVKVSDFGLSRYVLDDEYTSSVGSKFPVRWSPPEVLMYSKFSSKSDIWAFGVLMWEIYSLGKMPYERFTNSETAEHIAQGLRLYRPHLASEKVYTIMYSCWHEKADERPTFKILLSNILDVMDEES
row,DC50 [nM],SMILES
1,56.3,"Cc1cc(-c2n[nH]c3ncc(-c4ccc(N5CCN(CCc6ccc(N7CCC(=O)NC7=O)nc6)CC5)cc4)cc23)ccc1[C@@H](C)NC(=O)c1noc(C(C)(C)C)n1 [Example 159, (R)-5-(tert-butyl)-N-(1-(4-(5-(4-(4-(2-(6-(2,4-dioxotetrahydropyrimidin-1(2H)-yl)pyridin-3-yl)ethyl)piperazin-1-yl)phenyl)-1H-pyrazolo[3,4-b]pyridin-3-yl)-2-methylphenyl)ethyl)-1,2,4-oxadiazole-3-carboxamide]"
2,10.6,"Cc1cc(-c2n[nH]c3ncc(-c4ccc(N5CCN(CC(C)c6ccc(N7CCC(=O)NC7=O)cc6)CC5)cc4)cc23)ccc1[C@@H](C)NC(=O)c1noc(C(C)(C)C)n1 (stereo partly drawn) [Example 160, 5-(tert-butyl)-N-((1R)-1-(4-(5-(4-(4-(2-(4-(2,4-dioxotetrahydropyrimidin-1(2H)-yl)phenyl)propyl)piperazin-1-yl)phenyl)-1H-pyrazolo[3,4-b]pyridin-3-yl)-2-methylphenyl)ethyl)-1,2,4-oxadiazole-3-carboxamide]"
3,5.27,"Cc1cc(-c2n[nH]c3ncc(-c4ccc(N5CCN(CCc6ccc([C@@H]7CCC(=O)NC7=O)cc6)CC5)cn4)cc23)ccc1[C@@H](C)NC(=O)c1noc(C(C)(C)C)n1 [Example 161, 5-(tert-butyl)-N—((R)-1-(4-(5-(5-(4-(4-((S)-2,6-dioxopiperidin-3-yl)phenethyl)piperazin-1-yl)pyridin-2-yl)-1H-pyrazolo[3,4-b]pyridin-3-yl)-2-methylphenyl)ethyl)-1,2,4-oxadiazole-3-carboxamide]"
4,1.01,"Cc1cc(-c2n[nH]c3ncc(-c4ccc(N5CCN(CCc6ccc([C@H]7CCC(=O)NC7=O)cc6)CC5)cn4)cc23)ccc1[C@@H](C)NC(=O)c1noc(C(C)(C)C)n1 [Example 162, 5-(tert-butyl)-N—((R)-1-(4-(5-(5-(4-(4-((R)-2,6-dioxopiperidin-3-yl)phenethyl)piperazin-1-yl)pyridin-2-yl)-1H-pyrazolo[3,4-b]pyridin-3-yl)-2-methylphenyl)ethyl)-1,2,4-oxadiazole-3-carboxamide]"
5,2.13,"Cc1cc(-c2n[nH]c3ncc(-c4ccc(N5CCN(CCc6ccc(C7CCC(=O)NC7=O)c(C)n6)CC5)cn4)cc23)ccc1[C@@H](C)NC(=O)c1noc(C(C)(C)C)n1 (stereo partly drawn) [Example 163, 5-(tert-butyl)-N-((1R)-1-(4-(5-(5-(4-(2-(5-(2,6-dioxopiperidin-3-yl)-6-methylpyridin-2-yl)ethyl)piperazin-1-yl)pyridin-2-yl)-1H-pyrazolo[3,4-b]pyridin-3-yl)-2-methylphenyl)ethyl)-1,2,4-oxadiazole-3-carboxamide]"
6,2.05,"Cc1cc(-c2n[nH]c3ncc(-c4ccc(N5CCN(CCn6nc(C)c(N7CCC(=O)NC7=O)c6C)CC5)cc4)cc23)ccc1[C@@H](C)NC(=O)c1noc(C(C)(C)C)n1 [Example 164, (R)-5-(tert-butyl)-N-(1-(4-(5-(4-(4-(2-(4-(2,4-dioxotetrahydropyrimidin-1(2H)-yl)-3,5-dimethyl-1H-pyrazol-1-yl)ethyl)piperazin-1-yl)phenyl)-1H-pyrazolo[3,4-b]pyridin-3-yl)-2-methylphenyl)ethyl)-1,2,4-oxadiazole-3-carboxamide]"
7,2.7,"Cc1cc(-c2n[nH]c3ncc(-c4ccc(N5CCC(CN6CCN(c7ccc(N8CCC(=O)NC8=O)cn7)CC6)CC5)cc4)cc23)ccc1[C@@H](C)NC(=O)c1noc(C(C)(C)C)n1 [Example 165, (R)-5-(tert-butyl)-N-(1-(4-(5-(4-(4-((4-(5-(2,4-dioxotetrahydropyrimidin-1(2H)-yl)pyridin-2-yl)piperazin-1-yl)methyl)piperidin-1-yl)phenyl)-1H-pyrazolo[3,4-b]pyridin-3-yl)-2-methylphenyl)ethyl)-1,2,4-oxadiazole-3-carboxamide]"
8,3.07,"Cc1nc(CCN2CCN(c3ccc(-c4cnc5[nH]nc(-c6ccc([C@@H](C)NC(=O)c7noc(C(C)(C)C)n7)c(C)c6F)c5c4)cc3)CC2)ccc1C1CCC(=O)NC1=O (stereo partly drawn) [Example 166, 5-(tert-butyl)-N-((1R)-1-(4-(5-(4-(4-(2-(5-(2,6-dioxopiperidin-3-yl)-6-methylpyridin-2-yl)ethyl)piperazin-1-yl)phenyl)-1H-pyrazolo[3,4-b]pyridin-3-yl)-3-fluoro-2-methylphenyl)ethyl)-1,2,4-oxadiazole-3-carboxamide]"
9,4.13,"Cc1nc(CCN2CCN(c3ccc(-c4cnc5[nH]nc(-c6ccc([C@@H](C)NC(=O)c7noc(C(C)(C)C)n7)c(CO)c6)c5c4)cc3)CC2)ccc1C1CCC(=O)NC1=O (stereo partly drawn) [Example 167, 5-(tert-butyl)-N-((1R)-1-(4-(5-(4-(4-(2-(5-(2,6-dioxopiperidin-3-yl)-6-methylpyridin-2-yl)ethyl)piperazin-1-yl)phenyl)-1H-pyrazolo[3,4-b]pyridin-3-yl)-2-(hydroxymethyl)phenyl)ethyl)-1,2,4-oxadiazole-3-carboxamide]"
10,15.6,"Cc1cc(N2CCC(CCN3CCN(c4ccc(-c5cnc6[nH]nc(-c7ccc([C@@H](C)NC(=O)c8noc(C(C)(C)C)n8)c(C)c7)c6c5)cc4)CC3)CC2)ccc1C1CCC(=O)NC1=O (stereo partly drawn) [Example 168, 5-(tert-butyl)-N-((1R)-1-(4-(5-(4-(4-(2-(1-(4-(2,6-dioxopiperidin-3-yl)-3-methylphenyl)piperidin-4-yl)ethyl)piperazin-1-yl)phenyl)-1H-pyrazolo[3,4-b]pyridin-3-yl)-2-methylphenyl)ethyl)-1,2,4-oxadiazole-3-carboxamide]"
11,15.1,"COc1cc(N2CCC(CCN3CCN(c4ccc(-c5cnc6[nH]nc(-c7ccc([C@@H](C)NC(=O)c8noc(C(C)(C)C)n8)c(C)c7)c6c5)cc4)CC3)CC2)ccc1C1CCC(=O)NC1=O (stereo partly drawn) [Example 169, 5-(tert-butyl)-N-((1R)-1-(4-(5-(4-(4-(2-(1-(4-(2,6-dioxopiperidin-3-yl)-3-methoxyphenyl)piperidin-4-yl)ethyl)piperazin-1-yl)phenyl)-1H-pyrazolo[3,4-b]pyridin-3-yl)-2-methylphenyl)ethyl)-1,2,4-oxadiazole-3-carboxamide]"
12,4.77,"Cc1cc(-c2n[nH]c3ncc(-c4ccc(N5CC6CC5CN6CCc5ccc(C6CCC(=O)NC6=O)c(C)n5)cn4)cc23)ccc1[C@@H](C)NC(=O)c1noc(C(C)(C)C)n1 (stereo partly drawn) [Example 170, 5-(tert-butyl)-N-((1R)-1-(4-(5-(5-(5-(2-(5-(2,6-dioxopiperidin-3-yl)-6-methylpyridin-2-yl)ethyl)-2,5-diazabicyclo[2.2.1]heptan-2-yl)pyridin-2-yl)-1H-pyrazolo[3,4-b]pyridin-3-yl)-2-methylphenyl)ethyl)-1,2,4-oxadiazole-3-carboxamide]"
13,3.52,"COc1cc(N2CCC(=O)NC2=O)ccc1N1CCC(CN2CCN(c3ccc(-c4cnc5[nH]nc(-c6ccc([C@@H](C)NC(=O)c7noc(C(C)(C)C)n7)c(C)c6)c5c4)cc3)CC2)CC1 [Example 171, (R)-5-(tert-butyl)-N-(1-(4-(5-(4-(4-((1-(4-(2,4-dioxotetrahydropyrimidin-1(2H)-yl)-2-methoxyphenyl)piperidin-4-yl)methyl)piperazin-1-yl)phenyl)-1H-pyrazolo[3,4-b]pyridin-3-yl)-2-methylphenyl)ethyl)-1,2,4-oxadiazole-3-carboxamide]"
14,20.8,"Cc1cc(-c2n[nH]c3ncc(-c4ccc(N5CCN(CC6CCN(c7ccc(N8CCC(=O)NC8=O)c(C)c7)CC6)CC5)cc4)cc23)ccc1[C@@H](C)NC(=O)c1cc(C(C)(C)C)on1 [Example 172, (R)-5-(tert-butyl)-N-(1-(4-(5-(4-(4-((1-(4-(2,4-dioxotetrahydropyrimidin-1(2H)-yl)-3-methylphenyl)piperidin-4-yl)methyl)piperazin-1-yl)phenyl)-1H-pyrazolo[3,4-b]pyridin-3-yl)-2-methylphenyl)ethyl)isoxazole-3-carboxamide]"
15,> 2000,"Cc1cc(CCN2CC3CC2CN3c2ccc(-c3cnc4[nH]nc(-c5ccc([C@@H](C)NC(=O)c6noc(C(C)(C)C)n6)c(C)c5)c4c3)nc2)ncc1C1CCC(=O)NC1=O (stereo partly drawn) [Example 173, 5-(tert-butyl)-N-((1R)-1-(4-(5-(5-(5-(2-(5-(2,6-dioxopiperidin-3-yl)-4-methylpyridin-2-yl)ethyl)-2,5-diazabicyclo[2.2.1]heptan-2-yl)pyridin-2-yl)-1H-pyrazolo[3,4-b]pyridin-3-yl)-2-methylphenyl)ethyl)-1,2,4-oxadiazole-3-carboxamide]"
16,1.68,"Cc1cc(-c2n[nH]c3ncc(-c4ccc(N5CC6CN(CCc7ccc(C8CCC(=O)NC8=O)cc7)CC6C5)cn4)cc23)ccc1[C@@H](C)NC(=O)c1noc(C(C)(C)C)n1 (stereo partly drawn) [Example 174, 5-(tert-butyl)-N-((1R)-1-(4-(5-(5-(5-(4-(2,6-dioxopiperidin-3-yl)phenethyl)hexahydropyrrolo[3,4-c]pyrrol-2(1H)-yl)pyridin-2-yl)-1H-pyrazolo[3,4-b]pyridin-3-yl)-2-methylphenyl)ethyl)-1,2,4-oxadiazole-3-carboxamide]"
17,8.39,"Cc1cc(-c2n[nH]c3ncc(-c4ccc(N5CCN(CC(F)(F)c6ccc(C7CCC(=O)NC7=O)cc6)CC5)cc4)cc23)ccc1[C@@H](C)NC(=O)c1noc(C(C)(C)C)n1 (stereo partly drawn) [Example 175, 5-(tert-butyl)-N-((1R)-1-(4-(5-(4-(4-(2-(4-(2,6-dioxopiperidin-3-yl)phenyl)-2,2-difluoroethyl)piperazin-1-yl)phenyl)-1H-pyrazolo[3,4-b]pyridin-3-yl)-2-methylphenyl)ethyl)-1,2,4-oxadiazole-3-carboxamide]"

# Same assay, conditions: IC50 (DC50) of BTK degradation, formate
row,DC50 [nM],SMILES
1,1.89,"Cc1cc(-c2n[nH]c3ncc(-c4ccc(N5CCN(C6CC(c7ccc(C8CCC(=O)NC8=O)cc7)C6)CC5)cc4)cc23)ccc1[C@@H](C)NC(=O)c1noc(C(C)(C)C)n1 (stereo partly drawn) [Example 176, 5-(tert-butyl)-N-((1R)-1-(4-(5-(4-(4-(3-(4-(2,6-dioxopiperidin-3-yl)phenyl)cyclobutyl)piperazin-1-yl)phenyl)-1H-pyrazolo[3,4-b]pyridin-3-yl)-2-methylphenyl)ethyl)-1,2,4-oxadiazole-3-carboxamide formate]"
